# Test results reported in patent publication US11548868B2, “Heterocyclic compounds, compositions comprising heterocyclic compound, and methods of use thereof” (JS INNOPHARM (SHANGHAI) LTD, priority 2017, dated 2023).
# What was measured:
# [1] = target: T1, IDO1 in Hela cancer cells (Homo sapiens, UniProt P14902); experiment: IDO1 Cellular Assay (kynurenine production in IFN-γ stimulated Hela cancer cells); format: cell-based; conditions: human IFN-γ 50 ng/mL, 48 hours incubation, kynurenine at 490 nm
# T1 construct: endogenous in cells; host or cells: Hela cancer cells stimulated with human IFN-γ
# Method in brief: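 HeLa cells stimulated with 50 ng/mL IFN-γ (final) and treated 48 h with compound (0–25 μM final, 0.25% DMSO). Supernatant kynurenine measured after TCA hydrolysis and p-dimethylaminobenzaldehyde reaction at 490 nm; inhibition vs DMSO control, IC50 by non-linear regression.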
# [2] = target: T2, TDO2 in A172 cancer cells (Homo sapiens, UniProt P48775); experiment: TDO2 Cellular Assay (kynurenine production in A172 cancer cells); format: cell-based; conditions: L-Trp 1 mM, 24 hours incubation, kynurenine at 490 nm
# T2 construct: endogenous in cells; host or cells: A172 cancer cells
# Method in brief: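 Kynurenine output of A172 cells was read colorimetrically at 490 nm (Ehrlich reagent after TCA hydrolysis at 50 °C). Cells had 1 mM L-Trp plus compound at 0–25 μM in 0.25% DMSO for 24 h; IC50 values were fitted non-linearly from percent inhibition relative to vehicle.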
# T2 sequence (P48775 whole entry): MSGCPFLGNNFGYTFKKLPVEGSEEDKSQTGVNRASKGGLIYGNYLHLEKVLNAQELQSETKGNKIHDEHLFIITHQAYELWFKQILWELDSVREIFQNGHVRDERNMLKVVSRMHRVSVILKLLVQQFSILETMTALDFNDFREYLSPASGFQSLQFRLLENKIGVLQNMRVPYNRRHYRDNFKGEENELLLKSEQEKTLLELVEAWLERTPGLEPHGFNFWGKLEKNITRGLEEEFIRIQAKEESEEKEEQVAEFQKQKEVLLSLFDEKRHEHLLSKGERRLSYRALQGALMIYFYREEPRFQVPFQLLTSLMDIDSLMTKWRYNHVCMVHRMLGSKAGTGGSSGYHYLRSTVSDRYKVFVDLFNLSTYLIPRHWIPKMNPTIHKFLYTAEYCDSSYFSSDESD
# T1 sequence (P14902 whole entry): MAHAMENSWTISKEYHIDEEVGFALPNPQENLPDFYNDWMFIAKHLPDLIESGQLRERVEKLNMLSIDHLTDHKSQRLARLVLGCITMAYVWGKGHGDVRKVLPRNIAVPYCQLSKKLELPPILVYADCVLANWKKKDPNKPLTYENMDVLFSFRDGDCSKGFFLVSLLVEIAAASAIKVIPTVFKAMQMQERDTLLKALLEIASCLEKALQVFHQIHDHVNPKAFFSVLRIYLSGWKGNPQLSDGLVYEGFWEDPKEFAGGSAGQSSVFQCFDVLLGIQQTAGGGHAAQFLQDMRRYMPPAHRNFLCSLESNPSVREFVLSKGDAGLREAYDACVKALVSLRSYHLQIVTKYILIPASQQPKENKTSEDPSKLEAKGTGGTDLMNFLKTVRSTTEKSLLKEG
Compound,IC50 [1] [µM],IC50 [2] [µM]
"NS(=O)(=O)N[C@H]1[C@@H]2C[C@@](O)(c3cc(Cl)cc4[nH]ncc34)C[C@@H]21 [Example 140, N-((1R,3r,5S,6r)-3-(6-chloro-1H-indazol-4-yl)-3-hydroxybicyclo[3.1.0]hexan-6-yl)sulfuric diamide]",≤ 0.5,≤ 0.5
"CS(=O)(=O)N1C[C@@H]2C[C@@](O)(c3cc(Cl)cc4cn[nH]c34)C[C@@H]2C1 [Example 96, (3aR,5r,6aS)-5-(5-chloro-1H-indazol-7-yl)-2-(methylsulfonyl)octahydrocyclopenta[c]pyrrol-5-ol]",1 to 5,1 to 5
"O=C(Nc1ccc(Cl)cc1)N[C@H]1[C@@H]2C[C@@](O)(c3cc(Cl)cc4[nH]ncc34)C[C@@H]21 [Example 121, 1-((1R,3r,5S,6r)-3-(6-chloro-1H-indazol-4-yl)-3-hydroxybicyclo[3.1.0]hexan-6-yl)-3-(4-chlorophenyl)urea]",≤ 0.5,≤ 0.5
"O=S(=O)(C1CCOCC1)N1C[C@@H]2C[C@@](O)(c3cc(Cl)cc4cn[nH]c34)C[C@@H]2C1 [Example 101, (3aR,5r,6aS)-5-(5-chloro-1H-indazol-7-yl)-2-((tetrahydro-2H-pyran-4-yl)sulfonyl)octahydrocyclopenta[c]pyrrol-5-ol]",> 5,1 to 5
"O=C(Nc1ccccc1)N[C@H]1[C@@H]2C[C@@](O)(c3cc(Cl)cc4cn[nH]c34)C[C@@H]21 [Example 132, 1-((1R,3r,5S,6r)-3-(5-chloro-1H-indazol-7-yl)-3-hydroxybicyclo[3.1.0]hexan-6-yl)-3-phenylurea]",1 to 5,0.5 to 1
"O=C(N[C@H]1[C@@H]2C[C@@](O)(c3cc(Cl)cc4[nH]ncc34)C[C@@H]21)c1ccncc1 [Example 83, N-((1R,3r,5S,6r)-3-(6-chloro-1H-indazol-4-yl)-3-hydroxybicyclo[3.1.0]hexan-6-yl)isonicotinamide]",0.5 to 1,≤ 0.5
"CS(=O)(=O)Nc1cccc(C(=O)N[C@H]2[C@@H]3C[C@@](O)(c4cc(Cl)cc5[nH]ncc45)C[C@@H]32)c1 [Example 141, N-((1R,3r,5S,6r)-3-(6-chloro-1H-indazol-4-yl)-3-hydroxybicyclo[3.1.0]hexan-6-yl)-3-(methylsulfonamido)benzamide]",> 5,0.5 to 1
"O=C(N[C@H]1[C@@H]2C[C@@](O)(c3cc(Cl)cc4[nH]ncc34)C[C@@H]21)c1cncc(C(F)(F)F)c1 [Example 182, N-((1R,3r,5S,6r)-3-(6-chloro-1H-indazol-4-yl)-3-hydroxybicyclo[3.1.0]hexan-6-yl)-5-(trifluoromethyl)nicotinamide]",≤ 0.5,≤ 0.5
"O=C(N[C@H]1[C@@H]2C[C@@](O)(c3cc(Cl)cc4[nH]ncc34)C[C@@H]21)c1nc2cc(Cl)ccc2[nH]1 [Example 136, 5-chloro-N-((1R,3r,5S,6r)-3-(6-chloro-1H-indazol-4-yl)-3-hydroxybicyclo[3.1.0]hexan-6-yl)-1H-benzo[d]imidazole-2-carboxamide]",1 to 5,≤ 0.5
"O=C(c1ccccc1)N1C[C@@H]2C[C@@](O)(c3cc(Cl)cc4[nH]ncc34)C[C@@H]2C1 [Example 36, ((3aR,5r,6aS)-5-(6-chloro-1H-indazol-4-yl)-5-hydroxyhexahydrocyclopenta[c]pyrrol-2(1H)-yl)(phenyl)methanone]",> 5,≤ 0.5
"O=C(Nc1ccc(F)cc1)N[C@H]1[C@@H]2C[C@@](O)(c3cc(Cl)cc4[nH]ncc34)C[C@@H]21 [Example 147, 1-((1R,3r,5S,6r)-3-(6-chloro-1H-indazol-4-yl)-3-hydroxybicyclo[3.1.0]hexan-6-yl)-3-(4-fluorophenyl)urea]",1 to 5,≤ 0.5
"N#Cc1ccc(S(=O)(=O)N2C[C@@H]3C[C@@](O)(c4cc(Cl)cc5[nH]ncc45)C[C@@H]3C2)cc1 [Example 39, 4-(((3aR,5r,6aS)-5-(6-chloro-1H-indazol-4-yl)-5-hydroxyhexahydrocyclopenta[c]pyrrol-2(1H)-yl)sulfonyl)benzonitrile]",> 5,≤ 0.5
"CCNC(=O)N[C@H]1[C@@H]2C[C@@](O)(c3cc(Cl)cc4[nH]ncc34)C[C@@H]21 [Example 125, 1-((1R,3r,5S,6r)-3-(6-chloro-1H-indazol-4-yl)-3-hydroxybicyclo[3.1.0]hexan-6-yl)-3-ethylurea]",> 5,≤ 0.5
"O=S(=O)(NC1CCCCC1)N[C@H]1[C@@H]2C[C@@](O)(c3cc(Cl)cc4[nH]ncc34)C[C@@H]21 [Example 123, N′-cyclohexyl-N-((1R,3r,5S,6r)-3-(6-chloro-1H-indazol-4-yl)-3-hydroxybicyclo[3.1.0]hexan-6-yl)sulfuric diamide]",1 to 5,≤ 0.5
"O=C(NC1CC1)N[C@H]1[C@@H]2C[C@@](O)(c3cc(Cl)cc4[nH]ncc34)C[C@@H]21 [Example 120, 1-((1R,3r,5S,6r)-3-(6-chloro-1H-indazol-4-yl)-3-hydroxybicyclo[3.1.0]hexan-6-yl)-3-cyclopropylurea]",> 5,≤ 0.5
"CC1(C)[C@H]2CN(c3cc(Cl)cc4cncn34)C[C@H]2CN1S(C)(=O)=O (racemic) [Example 44, Racemic-7-chloro-5-((3aR,6aS)-4,4-dimethyl-5-(methylsulfonyl)hexahydropyrrolo[3,4-c]pyrrol-2(1H)-yl)imidazo[1,5-a]pyridine]",> 5,> 5
"CC(=O)Nc1cccc(C(=O)N[C@H]2[C@@H]3C[C@@](O)(c4cc(Cl)cc5[nH]ncc45)C[C@@H]32)c1 [Example 151, 3-acetamido-N-((1R,3r,5S,6r)-3-(6-chloro-1H-indazol-4-yl)-3-hydroxybicyclo[3.1.0]hexan-6-yl)benzamide]",1 to 5,≤ 0.5
"O=C(N[C@H]1[C@@H]2C[C@@](O)(c3cc(Cl)cc4[nH]ncc34)C[C@@H]21)c1cncc(Br)c1 [Example 170, 5-bromo-N-((1R,3r,5S,6r)-3-(6-chloro-1H-indazol-4-yl)-3-hydroxybicyclo[3.1.0]hexan-6-yl)nicotinamide]",≤ 0.5,≤ 0.5
"CS(=O)(=O)N1C[C@@H]2C[C@@](O)(c3c(Cl)ccc4cncn34)C[C@@H]2C1 [Example 53, (3aR,5r,6aS)-5-(6-chloroimidazo[1,5-a]pyridin-5-yl)-2-(methylsulfonyl)octahydrocyclopenta[c]pyrrol-5-ol]",> 5,1 to 5
"N#Cc1ccc(C(=O)N2C[C@@H]3C[C@@](O)(c4cc(Cl)cc5[nH]ncc45)C[C@@H]3C2)cc1 [Example 42, 4-((3aR,5r,6aS)-5-(6-chloro-1H-indazol-4-yl)-5-hydroxyoctahydrocyclopenta[c]pyrrole-2-carbonyl)benzonitrile]",1 to 5,≤ 0.5
"CCNS(=O)(=O)N[C@H]1[C@@H]2C[C@@](O)(c3cc(Cl)cc4[nH]ncc34)C[C@@H]21 [Example 128, N′-ethyl-N-((1R,3r,5S,6r)-3-(6-chloro-1H-indazol-4-yl)-3-hydroxybicyclo[3.1.0]hexan-6-yl)sulfuric diamide]",0.5 to 1,≤ 0.5
"Cc1cc(C(=O)N[C@H]2[C@@H]3C[C@@](O)(c4cc(Cl)cc5[nH]ncc45)C[C@@H]32)no1 [Example 154, N-((1R,3r,5S,6r)-3-(6-chloro-1H-indazol-4-yl)-3-hydroxybicyclo[3.1.0]hexan-6-yl)-5-methylisoxazole-3-carboxamide]",0.5 to 1,≤ 0.5
"O=C(C1CC1)N1C[C@@H]2C[C@@](O)(c3cc(Cl)cc4[nH]ncc34)C[C@@H]2C1 [Example 38, ((3aR,5r,6aS)-5-(6-chloro-1H-indazol-4-yl)-5-hydroxyhexahydrocyclopenta[c]pyrrol-2(1H)-yl)(cyclopropyl)methanone]",> 5,≤ 0.5
"O=C(N[C@H]1[C@@H]2C[C@@](O)(c3cc(Cl)cc4cn[nH]c34)C[C@@H]21)C1CC1 [Example 107, N-((1R,3r,5S,6r)-3-(5-chloro-1H-indazol-7-yl)-3-hydroxybicyclo[3.1.0]hexan-6-yl)cyclopropanecarboxamide]",> 5,≤ 0.5
"O[C@@]1(c2cc(Cl)cc3[nH]ncc23)C[C@H]2CN(c3ccncc3)C[C@H]2C1 [Example 116, (3aR,5r,6aS)-5-(6-chloro-1H-indazol-4-yl)-2-(pyridin-4-yl)octahydrocyclopenta[c]pyrrol-5-ol]",> 5,≤ 0.5
"CNS(=O)(=O)N[C@H]1[C@@H]2C[C@@](O)(c3cc(C(F)(F)F)cc4[nH]ncc34)C[C@@H]21 [Example 162, N′-methyl-N-((1R,3r,5S,6r)-3-hydroxy-3-(6-(trifluoromethyl)-1H-indazol-4-yl)bicyclo[3.1.0]hexan-6-yl)sulfuric diamide]",≤ 0.5,≤ 0.5
"O=C(N[C@H]1[C@@H]2C[C@@](O)(c3cc(Cl)cc4[nH]ncc34)C[C@@H]21)c1ccnc(C(F)(F)F)c1 [Example 156, N-((1R,3r,5S,6r)-3-(6-chloro-1H-indazol-4-yl)-3-hydroxybicyclo[3.1.0]hexan-6-yl)-2-(trifluoromethyl)isonicotinamide]",≤ 0.5,≤ 0.5
